The test system of series [1] is normogonadal women undergoing IVF-ET. The series can be described thus: clinical pregnancy rate in IVF-ET (Example IV). In kind it is in vivo, human. As to conditions: daily i.m. injection of 50 mg, 10/26. As to the method: Forty-nine normogonadal women undergoing IVF-ET were randomly assigned to receive a progesterone containing vaginal ring having an in vitro release rate of 10 mg per day (n=23) or a daily intramuscular (i.m.) injection of 50 mg progesterone (n=26). In order to induce multiple follicle growth, subjects received a sequential treatment with a gonadotropin releasing hormone (GnRH) agonist, human menopausal gonadotropin (hMG) and human […] gonadotropin (hCG). Oocytes were aspirated thirty-six hours after administering hCG, and treatment with progesterone, either i.m. or by vaginal ring, began at this time. Progesterone treatment continued for a maximum of seven weeks.

In series [2] the test system is functionally agonadal women. Description: clinical pregnancy and nidation rates in an oocyte donation cycle (Example III). It is filed as in vivo, human. As to the method: Seventeen functionally agonadal women used a progesterone containing vaginal ring having an in vitro release rate of 10 mg per day as the only source of progesterone during an oocyte donation cycle. When pregnancy was documented on day 12 after embryo transfer, the 10 mg ring was replaced by a vaginal ring having an in vitro release rate of 15 mg, which was left in place until the twelfth week of pregnancy. In the same period of time eighteen other women received daily i.m. injections of 100 mg progesterone. The decision to use one or the other route of administration was not randomized.

The subject of series [3] is rat embryos at the two cell stage. The conditions noted are these: cultured in vitro in the presence vs absence of hormone; cited from earlier work.
The conditions of series [4]: human, in vivo.
The conditions of series [5]: oral administration; rapid clearance by the liver; cited from earlier work.
Series [6] relates to endometrium. The series can be described thus: histology / dating of endometrial biopsies (Example I). It is filed as in vivo, human. As to the method: Endometrial biopsies were performed with an endometrial suction curette (Z-Sampler, California) on day +3 in six patients. Three patients using the 10 mg vaginal ring had endometrial biopsies repeated on day +7. […] Steril. 1:3-25 was used for assessing the day of the menstrual cycle. Endometrial tissue was processed routinely to obtain hematoxylin and eosin stained sections. These were coded and examined by the same pathologist, who was blinded for the hormone replacement therapy of each patient.

As for `CC(=O)[C@H]1CC[C@H]2[C@@H]3CCC4=CC(=O)CC[C@]4(C)[C@H]3CC[C@]12C` [progesterone], the clinical pregnancy rate in series [1] turned out to be 38.4%; in series [2] (daily i.m. injections of 100 mg, eighteen women), 38.9%. For the same compound, in series [2] (i.m. progesterone 100 mg daily, 9/66), the “nidation rate (total number of gestational sacs/total number of embryos transferred)” value is given as 13.6%. Besides, the “development to the blastocyst stage” value in series [3] was “better development to the blastocyst stage”. Further, the systemic side effects entry in series [4] was “no systemic side effects”. For the same compound, the “bioavailability in the circulation” value in series [5] is “low bioavailability”. Moreover, the “circulatory progesterone level with adequate biological effect on the endometrium” value in series [6] (intravaginal delivery) was 12-15 nmol/L. In series [6] (women supplemented with intramuscular progesterone), the advanced endometrial pattern result was “did not exhibit this advanced pattern”.

Source of the values: patent publication US5869081A, “Progesterone vaginal ring for treatment of infertility” (priority 1996, dated 1999).
